{
  "source": "paper PMC7343278",
  "about": "“A Meroisoprenoid, Heptenolides, and C-Benzylated Flavonoids from Sphaerocoryne gracilis ssp. gracilis” (Journal of Natural Products, 2020)",
  "key": {"[1]": {"system": "HEK-293 human embryonic kidney cells", "assay": "Cytotoxicity against human embryonic kidney cells", "assay_type": "cell-based", "conditions": "for inhibition at 20 µM: read-out: Percentage growth inhibition at 20 μM, HEK-293", "method": "(§1) Antiplasmodial activity was determined using a high-content imaging assay, as described previously.[10],[24] The cytotoxicity of the antiplasmodial compounds was evaluated against human embryonic kidney cells (HEK-293) following an established protocol.[10],[24] Human red blood cells for culture of P. falciparum were provided by the Australian Red Cross Blood Bank in accordance with their routine Material Transfer Agreement (MTA) for nonclinical blood product supply. These bioassay studies were approved by the Griffith University Biosafety and Human Ethics Committee (GU ref no. ESK/03/12/HREC; 03/08/11019)."}, "[2]": {"system": "Plasmodium falciparum chloroquine-sensitive (3D7) strain", "assay": "Antiplasmodial high-content imaging assay, 3D7 strain", "assay_type": "cell-based", "conditions": "for IC50: Plasmodium falciparum; for inhibition of plasmodial growth at 20 μM: 20 μM concentration, strain not specified (3D7/Dd2)"}, "[3]": {"system": "Plasmodium falciparum chloroquine-resistant (Dd2) strain", "assay": "Antiplasmodial high-content imaging assay, Dd2 strain", "assay_type": "cell-based", "method": "as §1"}, "[4]": {"system": "cap-dependent and independent translation initiation", "assay": "Translation inhibition assay (luciferase model)", "assay_type": "biochemical", "conditions": "in vitro", "method": "Luciferase inhibition activity assays were performed following standard procedures described previously.[9],[10]"}, "[5]": {"conditions": "P. falciparum 3D7 (chloroquine-sensitive), read-out: IC50 3D7"}, "[6]": {"conditions": "P. falciparum Dd2 (chloroquine-resistant), read-out: IC50 Dd2"}},
  "note": "Like-named read-outs stand apart in the source and are kept apart here.",
  "data": [
    {"smiles": "C[C@H]1[C@@H](O)O[C@@H]2O[C@@]3(C)CC[C@H]4[C@H](C)CC[C@@H]1[C@@]24OO3", "note": "[DHA]", "values": [
      {"measurement": "inhibition at 20 µM", "setting": "[1]; HEK293, HEK-293 cells", "result": 50, "unit": "%"}
    ]},
    {"smiles": "C[C@H]1[C@H](OC(=O)CCC(=O)O)O[C@@H]2O[C@@]3(C)CC[C@H]4[C@H](C)CC[C@@H]1[C@@]24OO3", "note": "[artesunate]", "values": [
      {"measurement": "inhibition at 20 µM", "setting": "[1]; HEK293, HEK-293 cells", "result": 75, "unit": "%"}
    ]},
    {"smiles": "CCN(CC)CCCC(C)Nc1ccnc2cc(Cl)ccc12", "note": "(stereo not drawn) [chloroquine]", "values": [
      {"measurement": "IC50", "setting": "[2]; 3D7, read-out: IC50 3D7", "result": 4.5, "unit": "nM"},
      {"measurement": "IC50", "setting": "[3]; DD2, read-out: IC50 Dd2", "result": 46, "unit": "nM"},
      {"measurement": "inhibition at 40 µM", "setting": "[1]; HEK293, read-out: Percentage growth inhibition at 40 μM, HEK-293", "result": 60, "unit": "%"}
    ]},
    {"smiles": "O=C1C[C@@H](c2ccccc2)Oc2cc(O)c(Cc3cccc(O)c3O)c(O)c21", "note": "[compound 4, (S)-6-(2,3-dihydroxybenzyl)-5,7-dihydroxy-2-phenylchroman-4-one]", "values": [
      {"measurement": "inhibition of plasmodial growth at 20 μM", "setting": "[2]", "result": "inhibited plasmodial growth moderately"},
      {"measurement": "translational inhibitory activity", "setting": "[4]", "result": "none showed significant translational inhibitory activity"}
    ]},
    {"smiles": "O=c1cc(-c2ccccc2)oc2c(Cc3cccc(O)c3O)c(O)cc(O)c12", "note": "[compound 5, 8-(2,3-dihydroxybenzyl)-5,7-dihydroxy-2-phenyl-4H-chromen-4-one]", "values": [
      {"measurement": "inhibition of plasmodial growth at 20 μM", "setting": "[2]", "result": "inhibited plasmodial growth moderately"},
      {"measurement": "translational inhibitory activity", "setting": "[4]", "result": "none showed significant translational inhibitory activity"}
    ]},
    {"smiles": "O=C1C[C@@H](c2ccccc2)Oc2c(Cc3cccc(O)c3O)c(O)c(Cc3cccc(O)c3O)c(O)c21", "note": "[compound 6, 3″-hydroxygracinol]", "values": [
      {"measurement": "translational inhibitory activity", "setting": "[4]", "result": "none showed significant translational inhibitory activity"}
    ]},
    {"smiles": "O=C1C=C/C(=C/[C@H](O)COC(=O)c2ccccc2)O1", "note": "[compound 9, (Z)-melodorinol]", "values": [
      {"measurement": "translational inhibitory activity", "setting": "[4]", "result": "none showed significant translational inhibitory activity"}
    ]},
    {"smiles": "COC(=O)/C=C/C(=O)C[C@H](O)COC(=O)c1ccccc1", "note": "[compound 10, 7-hydroxy-6-hydromelodienone]", "values": [
      {"measurement": "translational inhibitory activity", "setting": "[4]", "result": "none showed significant translational inhibitory activity"},
      {"measurement": "inhibition at 40 µM", "setting": "[1]; HEK293, HEK-293 cells, 40 μM, read-out: Percentage growth inhibition at 40 μM, HEK-293", "result": 100, "unit": "%"}
    ]},
    {"smiles": "O=c1cc(-c2ccccc2)oc2cc(O)cc(O)c12", "note": "[compound 12, 5,7-dihydroxyflavone]", "values": [
      {"measurement": "translational inhibitory activity", "setting": "[4]", "result": "none showed significant translational inhibitory activity"}
    ]},
    {"smiles": "COc1ccc(C[C@H](N)C(=O)N[C@H]2[C@@H](O)[C@H](n3cnc4c(N(C)C)ncnc43)O[C@@H]2CO)cc1", "note": "[puromycin]", "values": [
      {"measurement": "IC50", "setting": "[2]; [5]", "result": 23, "unit": "nM"},
      {"measurement": "IC50", "setting": "[3]; [6]", "result": 45, "unit": "nM"},
      {"measurement": "IC50", "setting": "[1]; HEK293, HEK-293 cells", "result": 360, "unit": "nM"}
    ]},
    {"smiles": "CCc1nc(N)nc(N)c1-c1ccc(Cl)cc1", "note": "[pyrimethamine]", "values": [
      {"measurement": "IC50", "setting": "[1]; HEK293, HEK-293 cells", "result": 4200, "unit": "nM"}
    ]},
    {"smiles": "COc1ccc2nc3cc(Cl)ccc3c(Nc3cc(CN4CCCC4)c(O)c(CN4CCCC4)c3)c2n1", "note": "[pyronaridine]", "values": [
      {"measurement": "IC50", "setting": "[2]; [5]", "result": 3.6, "unit": "nM"},
      {"measurement": "IC50", "setting": "[3]; [6]", "result": 7.5, "unit": "nM"},
      {"measurement": "IC50", "setting": "[1]; HEK293, HEK-293 cells", "result": 1800, "unit": "nM"}
    ]}
  ]
}
